The source of these data is ChEMBL document CHEMBL1201862, “PubChem BioAssay data set” (2004).

Holding throughout (assay): growth of human tumour cells (NCI), 48 h
Assay [1] deals with NCI-H226.
The subject of assay [2] is DU-145.
The test system of assay [3] is OVCAR-8.
Assay [4] relates to HOP-62.
For assay [5], the system named is SK-MEL-2.
For assay [6], the system named is MOLT-4.
For assay [7], the system named is NCI/ADR-RES.
Assay [8] concerns OVCAR-4.
Assay [9] has as its system SF-539.
The test system of assay [10] is UO-31.
Assay [11] has as its system UACC-257.
Assay [12] has as its system SN12C.
For assay [13], the system named is EKVX.
The subject of assay [14] is SW-620.
Assay [15] concerns CAKI-1.
Assay [16] relates to PC-3.
Assay [17] deals with SNB-19.
In assay [18] the test system is UACC-62.
Assay [19] has as its system CCRF-CEM.
The subject of assay [20] is NCI-H23.

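Dose response: 5 concentrations. Exposure: 48 h. Format: 96-well plates. Endpoint: linear interpolation; highest concentration if not reached. At the GI50, growth is halved.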 Active and inactive are the calls of the source. No stated cut-off is given here; in the data, active = GI50 up to about 1.1 µM and inactive = higher.

Regarding `CC1CCCC2(CC[N+](C)(CCC[N+](C)(C)C)CC2)C1` (stereo not given), the GI50 in assay [1], in assay [2], in assay [3], in assay [4], in assay [5] and in assay [6] was > 100 µM (inactive) each time. Further, the GI50 in assay [7], in assay [8], in assay [9], in assay [10], in assay [11] and in [12] was > 100 µM (inactive) in each case. Besides, the GI50 in [13], in assay [14], in assay [15], in assay [16], in assay [17] and in [18] was > 100 µM (inactive) throughout.

Consider `Nc1nncc2[nH]nnc12`, for which the GI50 is > 100 µM (inactive) in [1]; > 100 µM (inactive) in assay [2]; > 100 µM (inactive) in assay [3]; > 100 µM (inactive) in assay [4]; > 100 µM (inactive) in assay [5]; 17.4 µM (inactive) in assay [6]. The GI50 in assay [7] was > 100 µM (inactive); in assay [9] it was > 100 µM (inactive); in assay [10], > 100 µM (inactive); in [11] it was > 100 µM (inactive); in [12] it was > 100 µM (inactive); in assay [19] it was 11 µM (inactive). In addition, the GI50 in [13] is > 100 µM (inactive); in assay [14], 83.6 µM (inactive); in assay [15], > 100 µM (inactive); in assay [16], > 100 µM (inactive); in assay [20] it was > 100 µM (inactive); in assay [17] it was > 100 µM (inactive). In assay [18], the GI50 was > 100 µM (inactive).

`CN1CCN(/C(N)=C(\C#N)C(=O)Nc2ccc(Cl)cc2)CC1`: the GI50 was > 100 µM (inactive) in [1]; 79.3 µM (inactive) in assay [2]; > 100 µM (inactive) in assay [3]; > 100 µM (inactive) in assay [4]; 32.7 µM (inactive) in [5]; 54.8 µM (inactive) in assay [6]. The GI50 in [7] was 87.9 µM (inactive); in assay [9], > 100 µM (inactive); in assay [10] it was 55.1 µM (inactive); in assay [11] it was 59 µM (inactive); in assay [12] it was > 100 µM (inactive); in assay [19], 30.1 µM (inactive). In addition, the GI50 in assay [13] was 78.2 µM (inactive); in [14], > 100 µM (inactive); in assay [15], 79.8 µM (inactive); in assay [16] it was 39.8 µM (inactive); in [20], 67 µM (inactive); in assay [17], > 100 µM (inactive). Further, the GI50 in assay [18] was 23 µM (inactive).

As for `N#C/C=C(/NC(=O)Nc1ccccc1)N1CCCC1`, the GI50 is > 42 µM (inactive) in [1]; > 50.9 µM (inactive) in assay [2]; > 32.5 µM (inactive) in assay [3]; > 32.9 µM (inactive) in [5]; > 100 µM (inactive) in assay [6]; > 39.9 µM (inactive) in assay [7]. The GI50 in assay [8] was 34.6 µM (inactive); in assay [9] it was > 47.4 µM (inactive); in [10] it was > 89.3 µM (inactive); in assay [11] it was 45.6 µM (inactive); in assay [12], > 86.3 µM (inactive); in assay [19] it was > 100 µM (inactive). The GI50 was > 59.7 µM (inactive) in [13]; > 44.2 µM (inactive) in [14]; > 45.9 µM (inactive) in assay [15]; > 35.3 µM (inactive) in assay [16]; > 49.3 µM (inactive) in [20]; > 25.2 µM (inactive) in assay [17]. Besides, the GI50 in [18] was > 82.6 µM (inactive).

Regarding `Cn1cnc(C(N)=[Se])c1N`, the GI50 in assay [1] is 3.11 µM (inactive); in assay [2], 4.1 µM (inactive); in assay [3], 1.92 µM (inactive); in assay [4], 2.46 µM (inactive); in assay [5] it was 2.27 µM (inactive); in assay [7] it was 1.89 µM (inactive). The GI50 in assay [9] was 2.02 µM (inactive); in [10], 2.07 µM (inactive); in assay [11], 7.24 µM (inactive); in assay [12] it was 2.29 µM (inactive); in assay [19] it was 2.24 µM (inactive); in [13], 2.05 µM (inactive). For the same molecule, the GI50 in assay [14] was 4.19 µM (inactive); in [15] it was 3.27 µM (inactive); in assay [16], 2.24 µM (inactive); in assay [20], 3 µM (inactive); in assay [17] it was 1.29 µM (inactive); in assay [18], 2 µM (inactive).

With `ClC1=C(Cl)C2OC3C=CCC3OC2C(Cl)=C1Cl` (stereo not given), the GI50 was 95.3 µM (inactive) in [1]; > 100 µM (inactive) in assay [2]; > 100 µM (inactive) in assay [3]; > 100 µM (inactive) in [4]; 18.8 µM (inactive) in assay [5]; 35.3 µM (inactive) in assay [6]. Further, the GI50 in [7] is 53.6 µM (inactive); in assay [8], > 100 µM (inactive); in [9] it was > 100 µM (inactive); in assay [10], > 100 µM (inactive); in assay [11] it was 34.5 µM (inactive); in assay [19] it was 40.1 µM (inactive). The GI50 in [13] is 44.1 µM (inactive); in assay [14], 41.2 µM (inactive); in assay [15], > 100 µM (inactive); in assay [16] it was 39.7 µM (inactive); in [20], 56.4 µM (inactive).

For the molecule `COc1cc(Br)cc2cc(-c3cn4c(n3)sc3ccccc34)c(=O)oc12`, the GI50 was 17.7 µM (inactive) in [2]; 28.6 µM (inactive) in assay [3]; 22.7 µM (inactive) in [4]; 22.3 µM (inactive) in [5]; 20.9 µM (inactive) in [6]; 30.7 µM (inactive) in [7]. Moreover, the GI50 in [8] is 26.1 µM (inactive); in [9] it was 30.9 µM (inactive); in assay [10], 18.7 µM (inactive); in assay [11] it was 38.5 µM (inactive); in [12], 24.7 µM (inactive); in assay [19], 20.4 µM (inactive). The GI50 in assay [13] is 14.5 µM (inactive); in [14], 20.8 µM (inactive); in assay [15], 22.9 µM (inactive); in assay [16], 16.3 µM (inactive); in [20], 21.2 µM (inactive); in assay [17], 32.7 µM (inactive). Further, the GI50 in [18] is 22.6 µM (inactive).

For `O=C(N/N=C/c1ccco1)c1cc(I)cc(I)c1O`, the GI50 in assay [1] is 11.4 µM (inactive); in assay [2], 23.4 µM (inactive); in assay [3], 19.4 µM (inactive); in assay [5] it was 5.22 µM (inactive); in assay [6], 26.3 µM (inactive); in [7] it was 20.7 µM (inactive). Besides, the GI50 was 35.8 µM (inactive) in [8]; 11.8 µM (inactive) in assay [9]; 24 µM (inactive) in [10]; 9.06 µM (inactive) in assay [12]; > 50 µM (inactive) in assay [19]; 12.4 µM (inactive) in assay [13]. In addition, the GI50 was 22.2 µM (inactive) in assay [14]; 19.4 µM (inactive) in assay [15]; 35.2 µM (inactive) in assay [16]; 21.7 µM (inactive) in [20]; 32.2 µM (inactive) in assay [17]; 16.6 µM (inactive) in assay [18].

For `Nc1ccc2c(c1)Nc1c3ccccc3nc3cccc-2c13`, the GI50 in assay [1] was 1.62 µM (inactive); in assay [2], 1.59 µM (inactive); in assay [4] it was 1.3 µM (inactive); in [5] it was 1.73 µM (inactive); in assay [6] it was 0.391 µM (active); in [7], 1.66 µM (inactive). The GI50 was 1.72 µM (inactive) in assay [8]; 1.66 µM (inactive) in assay [9]; 1.72 µM (inactive) in assay [10]; 2 µM (inactive) in assay [11]; 1.29 µM (inactive) in assay [12]; 3.85 µM (inactive) in assay [19]. Also, the GI50 was 1.69 µM (inactive) in assay [13]; 0.585 µM (active) in [14]; 1.54 µM (inactive) in assay [15]; 1.54 µM (inactive) in assay [16]; 1.48 µM (inactive) in assay [20]; 1.64 µM (inactive) in assay [17]. For the same molecule, the GI50 in [18] is 1.82 µM (inactive).

Consider `CCC(NC(C)c1ccccc1)C(=O)c1ccc(OCc2ccccc2)c(OCc2ccccc2)c1` (stereo not given), for which the GI50 in assay [1], in assay [2], in assay [3], in assay [4], in assay [7] and in assay [8] was > 100 µM (inactive) throughout. The GI50 in assay [9], in [10], in assay [12], in assay [13], in assay [14] and in assay [15] was > 100 µM (inactive) throughout. Further, the GI50 in [16], in [20], in assay [17] and in assay [18] was > 100 µM (inactive) in each case.

In the case of `O[C@H]1[C@H](O)[C@@H](O)[C@H](O)[C@@H](O)[C@H]1O` [INOSITOL], the GI50 in assay [1] is > 1000 µM (inactive); in [2] it was > 1000 µM (inactive); in assay [3] it was > 1000 µM (inactive); in assay [4], > 1000 µM (inactive); in assay [5], > 1000 µM (inactive); in assay [6], 154 µM (inactive). The GI50 in assay [7], in assay [8], in assay [9], in assay [10], in [11] and in [12] was > 1000 µM (inactive) each time. Also, the GI50 in [19] is 1.7 µM (inactive); in assay [14], > 1000 µM (inactive); in [16], > 1000 µM (inactive); in [20] it was > 1000 µM (inactive); in assay [17], > 1000 µM (inactive); in [18], > 1000 µM (inactive).
